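Interpolation was linear, between the two tested concentrations surrounding the appropriate level; five concentrations were tested over 48 hours in 96-well plates. TGI: concentration producing complete growth inhibition.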
Legend:
Assay in all cases: NCI anticancer screen, dose series, 48 h
SNB-78 CNS = test system: SNB-78 CNS
OVCAR-8 ovarian = test system: OVCAR-8 ovarian
NCI-H23 lung = test system: NCI-H23 lung
UACC-62 melanoma = test system: UACC-62 melanoma
HOP-62 NSCLC = test system: HOP-62 NSCLC
SK-MEL-28 melanoma = test system: SK-MEL-28 melanoma
SNB-75 CNS = test system: SNB-75 CNS
LOX IMVI melanoma = test system: LOX IMVI melanoma
HCT-15 colon = test system: HCT-15 colon
SNB-19 CNS = test system: SNB-19 CNS
KM20L2 colon = test system: KM20L2 colon
HT29 colon = test system: HT29 colon
SK-OV-3 ovarian = test system: SK-OV-3 ovarian
DLD-1 colon = test system: DLD-1 colon
UACC-257 melanoma = test system: UACC-257 melanoma
HCT-116 colon = test system: HCT-116 colon
DMS 273 small cell lung = test system: DMS 273 small cell lung
EKVX NSCLC = test system: EKVX NSCLC
HCC-2998 colon = test system: HCC-2998 colon
A549 NSCLC = test system: A549 NSCLC
MOLT-4 leukemia = test system: MOLT-4 leukemia
XF 498 CNS = test system: XF 498 CNS
SW-620 colon = test system: SW-620 colon
HOP-92 NSCLC = test system: HOP-92 NSCLC
M14 melanoma = test system: M14 melanoma
NCI-H522 lung = test system: NCI-H522 lung
SK-MEL-2 melanoma = test system: SK-MEL-2 melanoma
CCRF-CEM leukemia = test system: CCRF-CEM leukemia
RXF 393 renal = test system: RXF 393 renal
LXFL 529 NSCLC = test system: LXFL 529 NSCLC
NCI-H460 lung = test system: NCI-H460 lung
TK-10 renal = test system: TK-10 renal
786-0 renal = test system: 786-0 renal
COLO 205 colon = test system: COLO 205 colon
IGROV1 ovarian = test system: IGROV1 ovarian
U251 CNS = test system: U251 CNS
DMS 114 small cell lung = test system: DMS 114 small cell lung
SK-MEL-5 melanoma = test system: SK-MEL-5 melanoma
ACHN renal = test system: ACHN renal
SN12C renal = test system: SN12C renal
HOP-18 NSCLC = test system: HOP-18 NSCLC
SF-268 CNS = test system: SF-268 CNS
UO-31 renal = test system: UO-31 renal
M19-MEL melanoma = test system: M19-MEL melanoma
MALME-3M melanoma = test system: MALME-3M melanoma
CAKI-1 renal = test system: CAKI-1 renal
NCI-H226 lung = test system: NCI-H226 lung
K-562 leukemia = test system: K-562 leukemia
OVCAR-5 ovarian = test system: OVCAR-5 ovarian
SF-539 CNS = test system: SF-539 CNS
OVCAR-4 ovarian = test system: OVCAR-4 ovarian
RPMI-8226 leukemia = test system: RPMI-8226 leukemia
OVCAR-3 ovarian = test system: OVCAR-3 ovarian
KM12 colon = test system: KM12 colon
SF-295 CNS = test system: SF-295 CNS
HL-60(TB) leukemia = test system: HL-60(TB) leukemia
SR leukemia = test system: SR leukemia

Q: With O=C(O)c1ccccc1NS(=O)(=O)c1ccc(Cl)cc1 as the molecule, how does the TGI (SNB-78 CNS) read?
A: > 100 µM

Q: What about the TGI (OVCAR-8 ovarian) of the same molecule?
A: > 100 µM

Q: And the TGI (NCI-H23 lung)?
A: > 100 µM

Q: And the TGI (UACC-62 melanoma)?
A: > 100 µM

Q: And the TGI (HOP-62 NSCLC)?
A: > 100 µM

Q: What about the TGI (SK-MEL-28 melanoma) of the same molecule?
A: > 100 µM

Q: What about the TGI (SNB-75 CNS) of the same molecule?
A: > 100 µM

Q: What about the TGI (LOX IMVI melanoma) of the same molecule?
A: > 100 µM

Q: And the TGI (HCT-15 colon)?
A: > 100 µM

Q: And the TGI (SNB-19 CNS)?
A: > 100 µM

Q: What about the TGI (KM20L2 colon) of the same molecule?
A: > 100 µM

Q: What about the TGI (HT29 colon) of the same molecule?
A: > 100 µM

Q: What about the TGI (SK-OV-3 ovarian) of the same molecule?
A: > 100 µM

Q: And the TGI (DLD-1 colon)?
A: > 100 µM

Q: And the TGI (UACC-257 melanoma)?
A: > 100 µM

Q: What about the TGI (HCT-116 colon) of the same molecule?
A: > 100 µM

Q: What about the TGI (DMS 273 small cell lung) of the same molecule?
A: > 100 µM

Q: What about the TGI (EKVX NSCLC) of the same molecule?
A: > 100 µM

Q: What about the TGI (HCC-2998 colon) of the same molecule?
A: > 100 µM

Q: What about the TGI (A549 NSCLC) of the same molecule?
A: > 100 µM

Q: And the TGI (MOLT-4 leukemia)?
A: > 100 µM

Q: What about the TGI (XF 498 CNS) of the same molecule?
A: > 100 µM

Q: What about the TGI (SW-620 colon) of the same molecule?
A: > 100 µM

Q: What about the TGI (HOP-92 NSCLC) of the same molecule?
A: 81.5 µM

Q: And the TGI (M14 melanoma)?
A: > 100 µM

Q: What about the TGI (NCI-H522 lung) of the same molecule?
A: > 100 µM

Q: And the TGI (SK-MEL-2 melanoma)?
A: > 100 µM

Q: And the TGI (CCRF-CEM leukemia)?
A: > 100 µM

Q: And the TGI (RXF 393 renal)?
A: > 100 µM

Q: And the TGI (LXFL 529 NSCLC)?
A: > 100 µM

Q: What about the TGI (NCI-H460 lung) of the same molecule?
A: > 100 µM

Q: What about the TGI (TK-10 renal) of the same molecule?
A: > 100 µM

Q: And the TGI (786-0 renal)?
A: > 100 µM

Q: What about the TGI (COLO 205 colon) of the same molecule?
A: > 100 µM

Q: What about the TGI (IGROV1 ovarian) of the same molecule?
A: > 100 µM

Q: What about the TGI (U251 CNS) of the same molecule?
A: > 100 µM

Q: And the TGI (DMS 114 small cell lung)?
A: > 100 µM

Q: And the TGI (SK-MEL-5 melanoma)?
A: > 100 µM

Q: What about the TGI (ACHN renal) of the same molecule?
A: > 100 µM

Q: What about the TGI (SN12C renal) of the same molecule?
A: > 100 µM

Q: And the TGI (HOP-18 NSCLC)?
A: > 100 µM

Q: What about the TGI (SF-268 CNS) of the same molecule?
A: > 100 µM

Q: And the TGI (UO-31 renal)?
A: > 100 µM

Q: What about the TGI (M19-MEL melanoma) of the same molecule?
A: > 100 µM

Q: And the TGI (MALME-3M melanoma)?
A: > 100 µM

Q: What about the TGI (CAKI-1 renal) of the same molecule?
A: > 100 µM

Q: What about the TGI (NCI-H226 lung) of the same molecule?
A: > 100 µM

Q: And the TGI (K-562 leukemia)?
A: > 100 µM

Q: What about the TGI (OVCAR-5 ovarian) of the same molecule?
A: > 100 µM

Q: And the TGI (SF-539 CNS)?
A: > 100 µM

Q: And the TGI (OVCAR-4 ovarian)?
A: > 100 µM

Q: What about the TGI (RPMI-8226 leukemia) of the same molecule?
A: > 100 µM

Q: For NCCNCCNCc1c2ccccc2c(CNCCNCCN)c2ccccc12, which TGI (SNB-78 CNS) is on record?
A: > 100 µM

Q: And the TGI (OVCAR-8 ovarian)?
A: > 100 µM

Q: What about the TGI (NCI-H23 lung) of the same molecule?
A: > 100 µM

Q: What about the TGI (UACC-62 melanoma) of the same molecule?
A: > 100 µM

Q: What about the TGI (OVCAR-3 ovarian) of the same molecule?
A: > 100 µM

Q: And the TGI (HOP-62 NSCLC)?
A: > 100 µM

Q: What about the TGI (KM12 colon) of the same molecule?
A: > 100 µM

Q: What about the TGI (SK-MEL-28 melanoma) of the same molecule?
A: > 100 µM

Q: And the TGI (SF-295 CNS)?
A: > 100 µM

Q: And the TGI (LOX IMVI melanoma)?
A: > 100 µM

Q: What about the TGI (HCT-15 colon) of the same molecule?
A: > 100 µM

Q: And the TGI (KM20L2 colon)?
A: > 100 µM

Q: And the TGI (HT29 colon)?
A: > 100 µM

Q: What about the TGI (SK-OV-3 ovarian) of the same molecule?
A: > 100 µM

Q: And the TGI (DLD-1 colon)?
A: > 100 µM

Q: What about the TGI (UACC-257 melanoma) of the same molecule?
A: > 100 µM

Q: What about the TGI (HCT-116 colon) of the same molecule?
A: > 100 µM

Q: What about the TGI (EKVX NSCLC) of the same molecule?
A: > 100 µM

Q: And the TGI (HCC-2998 colon)?
A: > 100 µM

Q: And the TGI (A549 NSCLC)?
A: > 100 µM

Q: And the TGI (HL-60(TB) leukemia)?
A: > 100 µM

Q: And the TGI (MOLT-4 leukemia)?
A: > 100 µM

Q: And the TGI (XF 498 CNS)?
A: > 100 µM

Q: What about the TGI (SW-620 colon) of the same molecule?
A: > 100 µM

Q: What about the TGI (SR leukemia) of the same molecule?
A: > 100 µM

Q: And the TGI (HOP-92 NSCLC)?
A: 84.1 µM

Q: What about the TGI (M14 melanoma) of the same molecule?
A: > 100 µM

Q: And the TGI (SK-MEL-2 melanoma)?
A: > 100 µM

Q: What about the TGI (CCRF-CEM leukemia) of the same molecule?
A: > 100 µM

Q: And the TGI (RXF 393 renal)?
A: > 100 µM

Q: What about the TGI (LXFL 529 NSCLC) of the same molecule?
A: > 100 µM

Q: And the TGI (NCI-H460 lung)?
A: > 100 µM

Q: And the TGI (TK-10 renal)?
A: > 100 µM

Q: And the TGI (786-0 renal)?
A: > 100 µM

Q: What about the TGI (COLO 205 colon) of the same molecule?
A: > 100 µM

Q: What about the TGI (IGROV1 ovarian) of the same molecule?
A: > 100 µM

Q: And the TGI (U251 CNS)?
A: > 100 µM

Q: What about the TGI (DMS 114 small cell lung) of the same molecule?
A: > 100 µM

Q: And the TGI (SK-MEL-5 melanoma)?
A: > 100 µM

Q: And the TGI (ACHN renal)?
A: > 100 µM

Q: What about the TGI (SN12C renal) of the same molecule?
A: > 100 µM

Q: And the TGI (HOP-18 NSCLC)?
A: > 100 µM

Q: And the TGI (SF-268 CNS)?
A: > 100 µM

Q: And the TGI (UO-31 renal)?
A: > 100 µM

Q: And the TGI (M19-MEL melanoma)?
A: > 100 µM

Q: And the TGI (MALME-3M melanoma)?
A: > 100 µM

Q: What about the TGI (CAKI-1 renal) of the same molecule?
A: > 100 µM

Q: And the TGI (NCI-H226 lung)?
A: > 100 µM

Q: What about the TGI (K-562 leukemia) of the same molecule?
A: > 100 µM

Q: And the TGI (OVCAR-5 ovarian)?
A: > 100 µM

Q: What about the TGI (SF-539 CNS) of the same molecule?
A: > 100 µM

Q: What about the TGI (OVCAR-4 ovarian) of the same molecule?
A: > 100 µM

Q: What about the TGI (RPMI-8226 leukemia) of the same molecule?
A: > 100 µM

Source: PubChem BioAssay (NCI)
